ChEMBL document CHEMBL1909046, “DrugMatrix in vitro pharmacology data”

Experiments:
[1] = molecular target: T1, Thromboxane-A synthase (Homo sapiens, UniProt P24557); experiment: biochemical; type: tissue-based, Platelet; details: platelet;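 further: enzyme inhibition assay with PGH2 supplied as substrate; in other assays of this panel Not Active means under 50% inhibition at 10 µM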
T1 sequence (P24557 whole entry): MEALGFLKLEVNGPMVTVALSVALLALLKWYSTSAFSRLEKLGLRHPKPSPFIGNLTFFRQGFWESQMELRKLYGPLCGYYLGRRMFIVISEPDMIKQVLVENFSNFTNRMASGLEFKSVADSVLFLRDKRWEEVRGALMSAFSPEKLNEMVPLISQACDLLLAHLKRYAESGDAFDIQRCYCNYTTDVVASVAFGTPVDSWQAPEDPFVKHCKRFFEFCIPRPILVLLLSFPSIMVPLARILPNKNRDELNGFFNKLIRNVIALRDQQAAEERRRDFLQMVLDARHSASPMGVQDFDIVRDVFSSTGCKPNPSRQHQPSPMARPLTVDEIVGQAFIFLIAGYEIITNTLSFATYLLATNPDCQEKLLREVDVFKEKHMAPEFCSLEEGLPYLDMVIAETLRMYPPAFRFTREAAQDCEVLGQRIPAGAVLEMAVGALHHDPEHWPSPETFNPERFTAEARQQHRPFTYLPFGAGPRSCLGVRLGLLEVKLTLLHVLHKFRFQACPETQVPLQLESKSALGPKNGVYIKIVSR

[2] = molecular target: Cytochrome P450 2E1 (Homo sapiens, UniProt P05181); details: bti-tn-5b1-4; further: in other assays of this panel Not Active means under 50% inhibition at 10 µM
[3] = molecular target: T2, Receptor-type tyrosine-protein phosphatase C (Homo sapiens, UniProt P08575); parameters: species or system Escherichia coli;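 further: inhibition of CD45 enzyme activity measured using DiFMUP as substrate; in other assays of this panel Not Active means under 50% inhibition at 10 µM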
T2 sequence (P08575 whole entry): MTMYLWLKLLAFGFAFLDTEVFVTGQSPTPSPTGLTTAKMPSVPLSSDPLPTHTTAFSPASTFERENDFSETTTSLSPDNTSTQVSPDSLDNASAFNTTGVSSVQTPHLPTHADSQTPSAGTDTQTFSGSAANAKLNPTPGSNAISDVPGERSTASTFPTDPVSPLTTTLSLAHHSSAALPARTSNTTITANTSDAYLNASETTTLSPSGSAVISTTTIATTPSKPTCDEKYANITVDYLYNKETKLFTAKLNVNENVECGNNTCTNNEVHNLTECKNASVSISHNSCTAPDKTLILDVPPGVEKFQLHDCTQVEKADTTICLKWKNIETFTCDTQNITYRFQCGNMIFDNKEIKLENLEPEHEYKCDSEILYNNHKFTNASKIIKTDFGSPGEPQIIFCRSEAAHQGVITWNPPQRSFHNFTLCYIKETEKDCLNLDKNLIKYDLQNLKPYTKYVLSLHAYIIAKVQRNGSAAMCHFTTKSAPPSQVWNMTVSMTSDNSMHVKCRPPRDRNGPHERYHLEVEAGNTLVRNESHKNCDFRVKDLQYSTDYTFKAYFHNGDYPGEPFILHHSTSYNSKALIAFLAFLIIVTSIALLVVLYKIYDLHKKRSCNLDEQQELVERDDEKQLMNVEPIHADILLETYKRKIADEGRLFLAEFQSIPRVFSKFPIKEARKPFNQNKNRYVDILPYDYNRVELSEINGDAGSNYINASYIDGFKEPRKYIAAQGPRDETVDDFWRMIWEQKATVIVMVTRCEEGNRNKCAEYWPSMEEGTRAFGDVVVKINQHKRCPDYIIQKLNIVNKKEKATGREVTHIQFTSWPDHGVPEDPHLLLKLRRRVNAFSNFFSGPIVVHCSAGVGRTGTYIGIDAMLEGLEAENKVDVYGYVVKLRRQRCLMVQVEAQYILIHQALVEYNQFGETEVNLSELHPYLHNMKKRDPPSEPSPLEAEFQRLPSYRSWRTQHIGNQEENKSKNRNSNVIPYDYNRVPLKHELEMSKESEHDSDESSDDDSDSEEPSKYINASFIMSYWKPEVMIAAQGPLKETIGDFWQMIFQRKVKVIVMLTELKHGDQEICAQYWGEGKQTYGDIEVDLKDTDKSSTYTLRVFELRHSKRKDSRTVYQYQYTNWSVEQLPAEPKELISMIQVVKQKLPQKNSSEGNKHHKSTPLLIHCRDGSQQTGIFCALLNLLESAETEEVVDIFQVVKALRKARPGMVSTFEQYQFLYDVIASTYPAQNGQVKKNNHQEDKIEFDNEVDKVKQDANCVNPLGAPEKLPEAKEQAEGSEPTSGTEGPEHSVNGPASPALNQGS

[4] = molecular target: T3, Progesterone receptor (Bos taurus, UniProt Q690N0); experiment: DRUGMATRIX: Progesterone radioligand binding (ligand: [3H] R-5020); type: tissue-based, Uterus; details: Not Active = under 50% inhibition at 10 µM
T3 sequence (Q690N0 whole entry): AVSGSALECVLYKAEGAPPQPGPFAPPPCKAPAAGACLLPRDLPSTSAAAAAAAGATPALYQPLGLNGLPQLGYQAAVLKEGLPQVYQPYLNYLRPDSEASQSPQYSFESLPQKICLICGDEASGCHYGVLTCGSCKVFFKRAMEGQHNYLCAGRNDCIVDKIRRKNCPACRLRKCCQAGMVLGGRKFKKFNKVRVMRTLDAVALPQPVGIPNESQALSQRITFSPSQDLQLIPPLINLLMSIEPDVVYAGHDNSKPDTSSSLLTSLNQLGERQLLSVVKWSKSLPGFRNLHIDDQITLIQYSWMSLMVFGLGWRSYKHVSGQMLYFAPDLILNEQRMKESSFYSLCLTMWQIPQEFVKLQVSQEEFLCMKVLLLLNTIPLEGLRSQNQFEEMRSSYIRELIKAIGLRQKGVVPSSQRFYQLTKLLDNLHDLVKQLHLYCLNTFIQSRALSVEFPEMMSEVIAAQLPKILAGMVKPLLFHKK

[5] = molecular target: Delta-type opioid receptor (Homo sapiens, UniProt P41143); type: cell membranes, HEK293, Membrane; details: hek293; further: in other assays of this panel Not Active means under 50% inhibition at 10 µM
[6] = DRUGMATRIX: Tumor Necrosis Factor (TNF), Non-Selective radioligand binding (ligand: [125I] TNF-alpha); type: cell membranes, Membrane; details: u-937; Not Active = under 50% inhibition at 10 µM

Chain of Cytochrome P450 2E1 (P05181 whole entry): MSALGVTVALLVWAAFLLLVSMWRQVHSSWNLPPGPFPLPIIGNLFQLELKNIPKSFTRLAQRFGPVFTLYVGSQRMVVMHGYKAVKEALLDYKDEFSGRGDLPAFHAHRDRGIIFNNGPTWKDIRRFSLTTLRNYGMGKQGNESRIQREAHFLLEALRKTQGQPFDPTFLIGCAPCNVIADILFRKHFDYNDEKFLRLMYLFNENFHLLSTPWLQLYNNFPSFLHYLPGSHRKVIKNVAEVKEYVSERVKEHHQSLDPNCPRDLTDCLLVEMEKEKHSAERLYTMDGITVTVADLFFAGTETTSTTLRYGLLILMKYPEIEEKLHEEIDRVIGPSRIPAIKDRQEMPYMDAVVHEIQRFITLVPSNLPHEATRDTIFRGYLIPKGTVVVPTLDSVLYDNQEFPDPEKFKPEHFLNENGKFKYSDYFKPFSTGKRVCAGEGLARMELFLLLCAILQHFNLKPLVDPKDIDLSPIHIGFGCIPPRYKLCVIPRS
Chain of Delta-type opioid receptor (P41143 whole entry): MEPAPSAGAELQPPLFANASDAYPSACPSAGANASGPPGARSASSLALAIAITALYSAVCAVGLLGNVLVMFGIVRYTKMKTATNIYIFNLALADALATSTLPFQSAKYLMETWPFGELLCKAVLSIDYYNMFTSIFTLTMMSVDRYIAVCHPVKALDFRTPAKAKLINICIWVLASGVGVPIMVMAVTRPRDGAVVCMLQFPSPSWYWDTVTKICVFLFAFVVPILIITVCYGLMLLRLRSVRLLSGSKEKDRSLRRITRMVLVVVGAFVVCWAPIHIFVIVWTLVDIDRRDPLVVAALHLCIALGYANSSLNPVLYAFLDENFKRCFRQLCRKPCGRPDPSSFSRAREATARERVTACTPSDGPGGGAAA

COc1ccc(C(CN(C)C)C2(O)CCCCC2)cc1 (stereo unspecified) [VENLAFAXINE]
Not Active: IC50 [1] | IC50 [2] | Ki [2] | IC50 [3] | IC50 [4] | IC50 [5] | IC50 [6] | Ki [6]

CN(N=O)C(=O)N[C@@H](C=O)[C@@H](O)[C@H](O)[C@H](O)CO [STREPTOZOCIN]
Not Active: IC50 [1] | IC50 [2] | Ki [2] | IC50 [3] | IC50 [4] | IC50 [5] | IC50 [6] | Ki [6]
